Test results: patent publication US20240000872A1, “NOVEL BACTERIOPHAGE THAT LYSES ACINETOBACTER GENUS BACTERIA HAVING RESISTANCE TO ANTIBIOTICS” (priority 2020, published 2024)

System: Acinetobacter baumannii strains
Assay: Antibiotic susceptibility test (CLSI disk diffusion test method, read per CLSI 2016); on antibiotic susceptibility S/I/R: key: ‘S’ means susceptible; ‘I’ means intermediate; ‘R’ means resistant; on antibiotic susceptibility class: key: ‘S’ means susceptible; ‘I’ means intermediate; ‘R’ means resistant; on susceptibility category (S/I/R): key: ‘S’ means susceptible; ‘I’ means intermediate; ‘R’ means resistant
Type: cell-based
Set-up: antibiotic susceptibility test value / susceptibility test value (number given before S/I/R) / antibiotic susceptibility value: unit not given here

colistin
antibiotic susceptibility class (host strain YMC14/01/C29): S | antibiotic susceptibility test value (host strain YMC14/01/C29): 0.5 | antibiotic susceptibility class (host strain YMC14/01/IP122): S | antibiotic susceptibility test value (host strain YMC14/01/IP122): 0.5 | antibiotic susceptibility class (host strain YMC14/01/L8): S | antibiotic susceptibility test value (host strain YMC14/01/L8): 0.5 | antibiotic susceptibility class (host strain YMC14/01/P31): S | antibiotic susceptibility test value (host strain YMC14/01/P31): 0.5 | antibiotic susceptibility class (host strain YMC14/01/P117): S | antibiotic susceptibility test value (host strain YMC14/01/P117): 0.5 | antibiotic susceptibility class (host strain YMC14/01/P224): S | antibiotic susceptibility test value (host strain YMC14/01/P224): 0.5 | antibiotic susceptibility class (host strain YMC14/01/P727): S | antibiotic susceptibility test value (host strain YMC14/01/P727): 0.5 | antibiotic susceptibility class (host strain YMC14/01/P728): S | antibiotic susceptibility test value (host strain YMC14/01/P728): 0.5 | antibiotic susceptibility class (host strain YMC14/01/R130): S | antibiotic susceptibility test value (host strain YMC14/01/R130): 0.5 | antibiotic susceptibility class (host strain YMC14/01/R160): S | antibiotic susceptibility test value (host strain YMC14/01/R160): 0.5 | antibiotic susceptibility class (host strain YMC14/01/R198): S | antibiotic susceptibility test value (host strain YMC14/01/R198): 0.5 | antibiotic susceptibility class (host strain YMC14/01/R257): S | antibiotic susceptibility test value (host strain YMC14/01/R257): 0.5 | antibiotic susceptibility class (host strain YMC14/01/R270): S | antibiotic susceptibility test value (host strain YMC14/01/R270): 0.5 | antibiotic susceptibility class (host strain YMC14/01/R324): S | antibiotic susceptibility test value (host strain YMC14/01/R324): 0.5 | antibiotic susceptibility class (host strain YMC14/01/R443): S | antibiotic susceptibility test value (host strain YMC14/01/R443): 0.5 | antibiotic susceptibility class (host strain YMC14/01/R451): S | antibiotic susceptibility test value (host strain YMC14/01/R451): 0.5 | antibiotic susceptibility class (host strain YMC14/01/R560): S | antibiotic susceptibility test value (host strain YMC14/01/R560): 0.5 | antibiotic susceptibility class (host strain YMC14/01/R617): S | antibiotic susceptibility test value (host strain YMC14/01/R617): 0.5 | antibiotic susceptibility class (host strain YMC14/01/R671): S | antibiotic susceptibility test value (host strain YMC14/01/R671): 0.5 | antibiotic susceptibility class (host strain YMC14/01/R732): S | antibiotic susceptibility test value (host strain YMC14/01/R732): 0.5 | antibiotic susceptibility class (host strain YMC14/01/R767): S | antibiotic susceptibility test value (host strain YMC14/01/R767): 0.5 | antibiotic susceptibility class (host strain YMC14/01/R904): S | antibiotic susceptibility test value (host strain YMC14/01/R904): 0.5 | antibiotic susceptibility class (host strain YMC14/01/R905): S | antibiotic susceptibility test value (host strain YMC14/01/R905): 0.5 | antibiotic susceptibility class (host strain YMC14/01/R921): S | antibiotic susceptibility test value (host strain YMC14/01/R921): 0.5 | antibiotic susceptibility class (host strain YMC14/01/R941): S | antibiotic susceptibility test value (host strain YMC14/01/R941): 0.5 | antibiotic susceptibility class (host strain YMC14/01/R958): S | antibiotic susceptibility test value (host strain YMC14/01/R958): 0.5 | antibiotic susceptibility class (host strain YMC14/01/R1006): S | antibiotic susceptibility test value (host strain YMC14/01/R1006): 0.5 | antibiotic susceptibility class (host strain YMC14/01/R1199): S | antibiotic susceptibility test value (host strain YMC14/01/R1199): 0.5 | antibiotic susceptibility class (host strain YMC14/01/R1659): S | antibiotic susceptibility test value (host strain YMC14/01/R1659): 0.5 | antibiotic susceptibility class (host strain YMC14/01/R1722): S | antibiotic susceptibility test value (host strain YMC14/01/R1722): 0.5 | antibiotic susceptibility class (host strain YMC14/01/R1752): S | antibiotic susceptibility test value (host strain YMC14/01/R1752): 0.5 | antibiotic susceptibility class (host strain YMC14/01/R2429): S | antibiotic susceptibility test value (host strain YMC14/01/R2429): 0.5 | antibiotic susceptibility class (host strain YMC14/01/R2572): S | antibiotic susceptibility test value (host strain YMC14/01/R2572): 0.5 | antibiotic susceptibility class (host strain YMC14/01/R2855): S | antibiotic susceptibility test value (host strain YMC14/01/R2855): 0.5 | antibiotic susceptibility class (host strain YMC14/01/R2945): S | antibiotic susceptibility test value (host strain YMC14/01/R2945): 0.5 | antibiotic susceptibility class (host strain YMC14/01/R3007): S | antibiotic susceptibility test value (host strain YMC14/01/R3007): 0.5 | antibiotic susceptibility class (host strain YMC14/01/R3129): S | antibiotic susceptibility test value (host strain YMC14/01/R3129): 0.5 | antibiotic susceptibility class (host strain YMC14/01/R3317): S | antibiotic susceptibility test value (host strain YMC14/01/R3317): 0.5 | antibiotic susceptibility class (host strain YMC14/01/R3474): S | antibiotic susceptibility test value (host strain YMC14/01/R3474): 0.5 | antibiotic susceptibility class (host strain YMC14/01/R3574): S | antibiotic susceptibility test value (host strain YMC14/01/R3574): 0.5 | antibiotic susceptibility class (host strain YMC14/01/U313): S | antibiotic susceptibility test value (host strain YMC14/01/U313): 0.5 | antibiotic susceptibility class (host strain YMC14/01/U318): S | antibiotic susceptibility test value (host strain YMC14/01/U318): 0.5 | antibiotic susceptibility class (host strain YMC14/02/L18): S | antibiotic susceptibility test value (host strain YMC14/02/L18): 0.5 | antibiotic susceptibility class (host strain YMC14/02/P47): S | antibiotic susceptibility test value (host strain YMC14/02/P47): 0.5 | antibiotic susceptibility class (host strain YMC14/02/R1860): S | antibiotic susceptibility test value (host strain YMC14/02/R1860): 0.5 | antibiotic susceptibility class (host strain YMC14/02/R2417): S | antibiotic susceptibility test value (host strain YMC14/02/R2417): 0.5 | antibiotic susceptibility class (host strain YMC14/02/R2599): S | antibiotic susceptibility test value (host strain YMC14/02/R2599): 0.5 | antibiotic susceptibility class (host strain YMC14/02/R2668): S | antibiotic susceptibility test value (host strain YMC14/02/R2668): 0.5 | antibiotic susceptibility class (host strain YMC14/02/R2758): S | antibiotic susceptibility test value (host strain YMC14/02/R2758): 0.5 | antibiotic susceptibility class (host strain YMC14/02/R2781): S | antibiotic susceptibility test value (host strain YMC14/02/R2781): 0.5 | antibiotic susceptibility class (host strain YMC14/02/R3106): S | antibiotic susceptibility test value (host strain YMC14/02/R3106): 0.5 | antibiotic susceptibility class (host strain YMC14/02/R3419): S | antibiotic susceptibility test value (host strain YMC14/02/R3419): 0.5 | antibiotic susceptibility class (host strain YMC14/02/U1607): S | antibiotic susceptibility test value (host strain YMC14/02/U1607): 0.5 | antibiotic susceptibility class (host strain YMC14/03/L9): S | antibiotic susceptibility test value (host strain YMC14/03/L9): 0.5 | antibiotic susceptibility class (host strain YMC14/03/P471): S | antibiotic susceptibility test value (host strain YMC14/03/P471): 0.5 | antibiotic susceptibility class (host strain YMC14/03/R122): S | antibiotic susceptibility test value (host strain YMC14/03/R122): 0.5 | antibiotic susceptibility class (host strain YMC14/03/R217): S | antibiotic susceptibility test value (host strain YMC14/03/R217): 0.5 | antibiotic susceptibility class (host strain YMC14/03/R380): S | antibiotic susceptibility test value (host strain YMC14/03/R380): 0.5 | antibiotic susceptibility class (host strain YMC14/03/R618): S | antibiotic susceptibility test value (host strain YMC14/03/R618): 0.5 | antibiotic susceptibility class (host strain YMC14/03/R2144): S | antibiotic susceptibility test value (host strain YMC14/03/R2144): 0.5 | antibiotic susceptibility class (host strain YMC14/03/U4616): S | antibiotic susceptibility test value (host strain YMC14/03/U4616): 0.5 | antibiotic susceptibility class (host strain YMC14/04/R1078): S | antibiotic susceptibility test value (host strain YMC14/04/R1078): 0.5 | antibiotic susceptibility class (host strain YMC14/04/R1080): S | antibiotic susceptibility test value (host strain YMC14/04/R1080): 0.5 | antibiotic susceptibility S/I/R (host strain YMC14/06/R2359): R | antibiotic susceptibility value (host strain YMC14/06/R2359): 16 | susceptibility category (S/I/R) (host strain YMC14/06/R2359): R | susceptibility test value (number given before S/I/R) (host strain YMC14/06/R2359): 16 | antibiotic susceptibility S/I/R (host strain YMC14/08/R1169): R | antibiotic susceptibility value (host strain YMC14/08/R1169): 16 | susceptibility category (S/I/R) (host strain YMC14/08/R1169): R | susceptibility test value (number given before S/I/R) (host strain YMC14/08/R1169): 16 | antibiotic susceptibility S/I/R (host strain YMC14/08/T90): R | antibiotic susceptibility value (host strain YMC14/08/T90): 16 | susceptibility category (S/I/R) (host strain YMC14/08/T90): R | susceptibility test value (number given before S/I/R) (host strain YMC14/08/T90): 16 | antibiotic susceptibility S/I/R (host strain YMC15/02/R436): R | antibiotic susceptibility value (host strain YMC15/02/R436): 8 | susceptibility category (S/I/R) (host strain YMC15/02/R436): R | susceptibility test value (number given before S/I/R) (host strain YMC15/02/R436): 8 | antibiotic susceptibility S/I/R (host strain YMC15/02/T28): R | antibiotic susceptibility value (host strain YMC15/02/T28): 16 | susceptibility category (S/I/R) (host strain YMC15/02/T28): R | susceptibility test value (number given before S/I/R) (host strain YMC15/02/T28): 16 | antibiotic susceptibility S/I/R (host strain YMC15/03/R1604): R | antibiotic susceptibility value (host strain YMC15/03/R1604): 16 | susceptibility category (S/I/R) (host strain YMC15/03/R1604): R | susceptibility test value (number given before S/I/R) (host strain YMC15/03/R1604): 16 | antibiotic susceptibility S/I/R (host strain YMC15/09/R1869): R | antibiotic susceptibility value (host strain YMC15/09/R1869): 16 | susceptibility category (S/I/R) (host strain YMC15/09/R1869): R | susceptibility test value (number given before S/I/R) (host strain YMC15/09/R1869): 16 | antibiotic susceptibility S/I/R (host strain YMC16/01/P11): S | antibiotic susceptibility value (host strain YMC16/01/P11): 0.5 | susceptibility category (S/I/R) (host strain YMC16/01/P11): S | susceptibility test value (number given before S/I/R) (host strain YMC16/01/P11): 0.5 | antibiotic susceptibility S/I/R (host strain YMC16/01/R123): S | antibiotic susceptibility value (host strain YMC16/01/R123): 0.5 | susceptibility category (S/I/R) (host strain YMC16/01/R123): S | susceptibility test value (number given before S/I/R) (host strain YMC16/01/R123): 0.5 | antibiotic susceptibility S/I/R (host strain YMC16/01/R198): S | antibiotic susceptibility value (host strain YMC16/01/R198): 0.5 | susceptibility category (S/I/R) (host strain YMC16/01/R198): S | susceptibility test value (number given before S/I/R) (host strain YMC16/01/R198): 0.5 | antibiotic susceptibility S/I/R (host strain YMC16/01/R353): S
